In ChEMBL document CHEMBL5505981, “Design, synthesis and biological evaluation of novel 1,2,4a,5-tetrahydro-4H-benzo[b][1,4]oxazino[4,3-d][1,4]oxazine-based AAK1 inhibitors with anti-viral property against SARS-CoV-2” (Eur J Med Chem, 2024):
Active and inactive are the calls of the source. No cut-off for these calls is given here.

Legend:
SARS-CoV-2 [1] = assay type: functional, organism-based; conditions: Severe acute respiratory syndrome coronavirus 2; HEK293; dose 3.0 µM, time 25.0 hrs
SARS-CoV-2 [2] = assay type: functional, organism-based; conditions: Severe acute respiratory syndrome coronavirus 2; HEK293; dose 3.0 µM, time 4.0 hrs
HEK293 [3] = assay type: cell-based; conditions: Homo sapiens, dose 1-3 µM, time 4.0 hrs
SARS-CoV-2 [4] = assay: microbe, parasite or virus in culture; conditions: Severe acute respiratory syndrome coronavirus 2, HEK293
SARS-CoV-2 [5] = assay type: functional, organism-based; conditions: Severe acute respiratory syndrome coronavirus 2; HEK293; dose 10.0 µM, time 6.0 hrs
SARS-CoV-2 [6] = assay type: functional, organism-based; conditions: Severe acute respiratory syndrome coronavirus 2; HEK293; dose 10.0 µM, time 6.0 hrs; remark: listed apart in the source
HEK293 [7] = assay type: cell-based; conditions: Homo sapiens, dose 5-10 µM, time 4.0 hrs
SARS-CoV-2 [8] = assay type: functional, organism-based; conditions: Severe acute respiratory syndrome coronavirus 2; HEK293; dose 5.0 µM, time 6.0 hrs
SARS-CoV-2 [9] = assay type: functional, organism-based; conditions: Severe acute respiratory syndrome coronavirus 2; HEK293; dose 5.0 µM, time 6.0 hrs; remark: listed apart in the source

SMILES | inhibition (SARS-CoV-2 [1]) | Activity (SARS-CoV-2 [2]) | inhibition (HEK293 [3]) | IC50 (SARS-CoV-2 [4]) [µM] | Activity (SARS-CoV-2 [5]) | Activity (SARS-CoV-2 [6]) | inhibition (HEK293 [7]) | Activity (SARS-CoV-2 [8]) | Activity (SARS-CoV-2 [9])
C(#Cc1c[nH]c2ncc(-c3ccc4c(c3)OCC3COCCN43)cc12)c1cccnc1 (configuration not stated) | Active | Active | Active | ~2.9 |  |  |  |  | 
CCN(CC)S(=O)(=O)Nc1cccc(-c2ccc3c(NC(=O)C4CC4)n[nH]c3c2)c1 |  | Active |  |  | Active | Active | Active |  | 
CC(C)C[C@](C)(N)COc1ccc(-c2ccnc(C(F)F)c2)nc1C(F)F [PILAVAPADIN] |  | Active |  | ~4.18 |  |  |  | Active | Active
COc1ccc(-c2cnc3[nH]cc(C#Cc4cccnc4)c3c2)cc1OC | Active | Active | Active | ~3.11 |  |  |  |  | 
CCN(CC)CCNC(=O)c1c(C)[nH]c(/C=C2\C(=O)Nc3ccc(F)cc32)c1C [SUNITINIB] |  |  |  | ~1.96 |  |  |  |  | 
